The values that follow come from PubChem BioAssay (NCI).

Where “and” joins values, the source holds several entries; their conditions need not be identical. Identical values can stand only once.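 How tested: cells in 96-well plates exposed to compound for 48 hours at five concentrations. GI50: concentration for 50% inhibition of growth. Definition used: TGI = concentration required for complete inhibition of growth.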

Test systems include M14 melanoma; SK-MEL-28 melanoma; HCT-116 colon; OVCAR-4 ovarian; OVCAR-5 ovarian; SN12C renal; HOP-92 NSCLC; OVCAR-8 ovarian; HOP-62 NSCLC; MALME-3M melanoma.
What all share (experiment): NCI anticancer screen, dose series, 48 h

`N=c1nc(N)c2cc3c(N)nc(=N)c3cc12`: the TGI in the assay with M14 melanoma worked out at 27.9 µM; in the assay with SK-MEL-28 melanoma, 10.7 µM; with HCT-116 colon it was 34.4 µM; with OVCAR-4 ovarian it was 51.2 µM; in the assay with OVCAR-5 ovarian, 73.9 µM; with SN12C renal, 23.5 µM. Also, the TGI was found to be 25.6 µM in the assay with HOP-92 NSCLC, 35 µM in the assay on OVCAR-8 ovarian, 38.5 µM with HOP-62 NSCLC and 18 µM with MALME-3M melanoma.
For the molecule `CCN(Cc1ccc(F)cc1)c1ccc(CO)c(Cl)c1`, the GI50 with M14 melanoma was 12.5 µM; with SK-MEL-28 melanoma, 14.5 µM; in the assay with HCT-116 colon it was 0.0661 µM; with OVCAR-4 ovarian it was 0.298 µM; in the assay with OVCAR-5 ovarian, 0.103 µM; with SN12C renal, 12.1 µM. For the same molecule, the GI50 was 0.956 µM with HOP-92 NSCLC, 9.24 µM in the assay with OVCAR-8 ovarian, 0.576 µM in the assay with HOP-62 NSCLC and 15 µM in the assay on MALME-3M melanoma. For the same molecule, the TGI in the assay with M14 melanoma is greater than 51.8 µM; with SK-MEL-28 melanoma, 39.3 µM; with HCT-116 colon, 3.02 µM; in the assay on OVCAR-4 ovarian, 7.48 µM; in the assay on OVCAR-5 ovarian, 0.525 µM; in the assay with SN12C renal it was 33.4 µM. Moreover, the TGI worked out at 13.1 µM with HOP-92 NSCLC, 43.5 µM with OVCAR-8 ovarian, 25.1 µM with HOP-62 NSCLC and 35.9 µM in the assay on MALME-3M melanoma.
As to `O=C1C=C(Nc2ccccc2)c2ncccc2C1=O`, the GI50 with M14 melanoma is 0.352 µM; in the assay with SK-MEL-28 melanoma it was 1.7 µM; with HCT-116 colon, 0.291 µM; in the assay on OVCAR-4 ovarian, 0.321 µM; in the assay on OVCAR-5 ovarian, 1.74 µM; in the assay with SN12C renal, 0.29 µM. The GI50 was 1.49 µM in the assay on HOP-92 NSCLC, 0.373 µM in the assay on OVCAR-8 ovarian, 0.376 µM in the assay on HOP-62 NSCLC and 1.06 µM with MALME-3M melanoma. In addition, the TGI in the assay with M14 melanoma is 1.17 µM; in the assay on SK-MEL-28 melanoma it was 3.24 µM; in the assay with HCT-116 colon, 0.883 µM; in the assay on OVCAR-4 ovarian it was 1.11 µM; in the assay with OVCAR-5 ovarian it was 3.4 µM; with SN12C renal, 0.829 µM. Besides, the TGI in the assay with HOP-92 NSCLC worked out at 2.97 µM; with OVCAR-8 ovarian it was 1.4 µM; with HOP-62 NSCLC, 1.49 µM; in the assay on MALME-3M melanoma it was 2.37 µM.
For `O=S(=O)(/C=C/C=C/S(=O)(=O)c1ccccc1)c1ccccc1`, the GI50 was 0.801 µM in the assay on M14 melanoma; 2.49 µM with SK-MEL-28 melanoma; 0.606 µM with HCT-116 colon; 1.9 µM in the assay on OVCAR-5 ovarian; 2.61 µM with OVCAR-8 ovarian; 8.81 µM with HOP-62 NSCLC. Besides, the GI50 in the assay with MALME-3M melanoma was 1.54 µM. For the same molecule, the TGI was 1.12 µM and 2.06 µM in the assay with M14 melanoma; 1.96 µM and 5.79 µM in the assay with SK-MEL-28 melanoma; 2.8 µM and 1.95 µM in the assay with HCT-116 colon; 3.28 µM and 3.18 µM in the assay on OVCAR-4 ovarian; 5.28 µM in the assay with OVCAR-5 ovarian; 4.16 µM in the assay on SN12C renal. For the same molecule, the TGI with HOP-92 NSCLC is 2.77 µM and 3.35 µM; with OVCAR-8 ovarian, 2.12 µM and 5.95 µM; in the assay on HOP-62 NSCLC, 20.9 µM; in the assay with MALME-3M melanoma it was 2.8 µM and 3.01 µM.
Consider `CCCCCCCC[N+](C)(C)Cc1ccc(C[N+](C)(C)CCCCCCCC)cc1`, for which the TGI with M14 melanoma, in the assay on SK-MEL-28 melanoma, with HCT-116 colon, in the assay with OVCAR-4 ovarian, with OVCAR-5 ovarian and in the assay with SN12C renal was greater than 100 µM in each case. Besides, the TGI was 88.1 µM in the assay on HOP-92 NSCLC, greater than 100 µM in the assay on OVCAR-8 ovarian, greater than 100 µM in the assay on HOP-62 NSCLC and greater than 100 µM in the assay with MALME-3M melanoma.
Consider `Cc1cc(N(CCC#N)CCC#N)ccc1/C=C1/CN(N2C(=O)/C(=C/c3ccc(N(CCC#N)CCC#N)cc3C)N=C2c2ccccc2)C(c2ccccc2)=N1`, for which the TGI with M14 melanoma, in the assay with SK-MEL-28 melanoma, in the assay with HCT-116 colon, in the assay on OVCAR-4 ovarian, in the assay with OVCAR-5 ovarian and in the assay on SN12C renal was greater than 100 µM throughout. Besides, the TGI in the assay with HOP-92 NSCLC, with OVCAR-8 ovarian, in the assay with HOP-62 NSCLC and in the assay with MALME-3M melanoma was greater than 100 µM in each case.
Turning to `CCOC(=O)[C@H](CSSc1ncnc2cc[nH]c12)NC(=O)[C@@H](C)c1ccc2cc(OC)ccc2c1`, the GI50 was 0.13 µM in the assay with M14 melanoma; 13.8 µM with SK-MEL-28 melanoma; 0.474 µM in the assay on HCT-116 colon; 2.03 µM with OVCAR-4 ovarian; 0.929 µM with OVCAR-5 ovarian; 3.98 µM with SN12C renal. The GI50 in the assay on HOP-92 NSCLC was 0.39 µM; in the assay with OVCAR-8 ovarian, 1.82 µM; in the assay with HOP-62 NSCLC it was 0.408 µM; with MALME-3M melanoma it was 4.02 µM. For the same molecule, the TGI is greater than 62.1 µM in the assay on M14 melanoma; greater than 100 µM with SK-MEL-28 melanoma; greater than 100 µM in the assay with HCT-116 colon; greater than 100 µM with OVCAR-4 ovarian; greater than 100 µM with OVCAR-5 ovarian; greater than 100 µM in the assay on SN12C renal. Besides, the TGI in the assay on HOP-92 NSCLC is 41 µM; with OVCAR-8 ovarian it was greater than 100 µM; in the assay with HOP-62 NSCLC, greater than 100 µM; in the assay with MALME-3M melanoma, greater than 96.5 µM.
Take `CN1CCN(C(=O)c2ccc(NC(=O)Nc3ccc(N(C)c4ccnc(Nc5ccc(CS(C)(=O)=O)cc5)n4)cc3)cc2)CC1`: the GI50 in the assay on M14 melanoma was greater than 23.2 µM; with SK-MEL-28 melanoma it was greater than 25 µM; in the assay with HCT-116 colon, 10.1 µM; with OVCAR-4 ovarian, 8.15 µM; in the assay on OVCAR-5 ovarian it was greater than 25 µM; in the assay with SN12C renal, 9.42 µM. For the same molecule, the GI50 with HOP-92 NSCLC is greater than 25 µM; in the assay on OVCAR-8 ovarian, 7.22 µM; in the assay with HOP-62 NSCLC, 7.61 µM; in the assay on MALME-3M melanoma it was greater than 15 µM. The TGI with M14 melanoma, in the assay on SK-MEL-28 melanoma, in the assay with HCT-116 colon, in the assay on OVCAR-4 ovarian, with OVCAR-5 ovarian and with SN12C renal was greater than 25 µM throughout. Besides, the TGI with HOP-92 NSCLC is greater than 25 µM; with OVCAR-8 ovarian, greater than 24 µM; with HOP-62 NSCLC, greater than 25 µM; in the assay on MALME-3M melanoma it was greater than 25 µM.
Consider `Cc1cc(Cl)ccc1Nc1sc(C(=O)c2cc3cc(Cl)ccc3o2)c(N)c1C#N`, for which the TGI in the assay on M14 melanoma was greater than 100 µM; in the assay on SK-MEL-28 melanoma it was greater than 100 µM; in the assay on HCT-116 colon, greater than 100 µM; with OVCAR-4 ovarian, 25.1 µM; with OVCAR-5 ovarian, greater than 100 µM; with SN12C renal, greater than 100 µM. For the same molecule, the TGI with HOP-92 NSCLC is greater than 100 µM; in the assay on OVCAR-8 ovarian it was greater than 87.2 µM; in the assay with HOP-62 NSCLC it was greater than 37.6 µM; in the assay on MALME-3M melanoma, greater than 100 µM.
